Reference: patent US11806339B2, “Combination therapy of Axl inhibitor and EGFR tyrosine kinase inhibitor” (Daiichi Sankyo Company, Limited, priority 2017, dated 2023)
Where a name gives a salt, the structure may show the parent alone.

Experiments:
[1] = Change in body weight and general symptoms in HCC827 tumor-bearing mice
Experimental: (§1) 0.1 mL of the prepared cell suspension was subcutaneously transplanted to each nude mouse (female, 5 weeks old). […] The administration was started on the day (Day 1) following the grouping date and carried out five times a week (Saturday and Sunday were set to drug holidays). […] The major axis (mm) and minor axis (mm) of each tumor were measured over time using an electronic digital caliper. The estimated tumor volume was calculated according to the expression (1) given below, and plotted. Also, the body weight was measured over time using an automatic balance for small animals. The rate of change in body weight (Change in body weight (%)) was calculated according to the expression (2) given below. […] Estimated tumor volume (mm^3)=Mean estimated tumor volume of individuals per group (1) Estimated tumor volume of each individual=An×Bn^2/2
(§2) Bn: Minor axis of the tumor at Day n Change in body weight (%)=Mean rate of change in body weights of individuals per group (2) Rate of change in body weight of each individual=(1−BWn/BWs)×100
BWn: Body weight at Day n
BWs: Body weight at the initial day of administration

HCC827 cells = experiment: In vivo effect of combined use of Compound A and osimertinib on subcutaneously transplanted HCC827 tumors (estimated tumor volume); design: species or system nude mouse;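 also: subcutaneous xenografts in female nude mice, tumor axes measured by caliper over time, volume as major axis × minor axis²/2, dosing from Day 1 five days weekly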
Experimental: as §1
An: Major axis of the tumor at Day n
as §2

[2] = Day 0, Compound A 12.5 mg/kg, bid
[3] = Day 0, Compound A 25 mg/kg, bid
[4] = Day 0, Compound A 50 mg/kg, bid
[5] = Day 4, Compound A 12.5 mg/kg, bid
[6] = Day 4, Compound A 25 mg/kg, bid
[7] = Day 4, Compound A 50 mg/kg, bid
[8] = Day 7, Compound A 12.5 mg/kg, bid
[9] = Day 7, Compound A 25 mg/kg, bid
[10] = Day 7, Compound A 50 mg/kg, bid
[11] = Day 11, Compound A 12.5 mg/kg, bid
[12] = Day 11, Compound A 25 mg/kg, bid
[13] = Day 11, Compound A 50 mg/kg, bid
[14] = Day 14, Compound A 12.5 mg/kg, bid
[15] = Day 14, Compound A 25 mg/kg, bid
[16] = Day 14, Compound A 50 mg/kg, bid
[17] = Day 18, Compound A 12.5 mg/kg, bid
[18] = Day 18, Compound A 25 mg/kg, bid
[19] = Day 18, Compound A 50 mg/kg, bid
[20] = Day 21, Compound A 12.5 mg/kg, bid
[21] = Day 21, Compound A 25 mg/kg, bid
[22] = Day 21, Compound A 50 mg/kg, bid
[23] = Day 25, Compound A 12.5 mg/kg, bid
[24] = Day 25, Compound A 25 mg/kg, bid
[25] = Day 25, Compound A 50 mg/kg, bid
[26] = Day 28, Compound A 25 mg/kg, bid
[27] = Day 11, osimertinib 3 mg/kg, qd
[28] = Day 14, osimertinib 3 mg/kg, qd
[29] = Day 18, osimertinib 3 mg/kg, qd
[30] = Day 21, osimertinib 3 mg/kg, qd
[31] = Day 25, osimertinib 3 mg/kg, qd
[32] = Day 28, osimertinib 3 mg/kg, qd
[33] = Day 32, osimertinib 3 mg/kg, qd
[34] = Day 35, osimertinib 3 mg/kg, qd
[35] = Day 39, osimertinib 3 mg/kg, qd
[36] = Day 46, osimertinib 3 mg/kg, qd
[37] = Day 49, osimertinib 3 mg/kg, qd
[38] = Day 53, osimertinib 3 mg/kg, qd
[39] = Day 56, osimertinib 3 mg/kg, qd
[40] = Day 60, osimertinib 3 mg/kg, qd
[41] = Day 63, osimertinib 3 mg/kg, qd
[42] = Day 67, osimertinib 3 mg/kg, qd
[43] = Day 74, osimertinib 3 mg/kg, qd
[44] = Day 77, osimertinib 3 mg/kg, qd
[45] = Day 81, osimertinib 3 mg/kg, qd
[46] = Day 84, osimertinib 3 mg/kg, qd
[47] = Day 88, osimertinib 3 mg/kg, qd
[48] = Day 91, osimertinib 3 mg/kg, qd
[49] = Day 95, osimertinib 3 mg/kg, qd
[50] = Day 100, osimertinib 3 mg/kg, qd

In the case of COc1cc(-c2cnc(N)c(-c3ccc(NC(=O)c4cn(CC5CCOCC5)cc(-c5ccc(C)cn5)c4=O)cc3F)c2)ccc1OC[C@H]1COCCO1 [Compound A, N-[4-(2-amino-5-{4-[(2R)-1,4-dioxan-2-ylmethoxy]-3-methoxyphenyl}pyridin-3-yl)-3-fluorophenyl]-5-methyl-4′-oxo-1′-(tetrahydro-2H-pyran-4-ylmethyl)-1′,4′-dihydro-2,3′-bipyridine-5′-carboxamide sulfate hydrate], the “Mean change in body weight” value [1, 2] is reported as 0.0%, the “Mean change in body weight” value [1, 3] is reported as 0.0% and the “Mean change in body weight” value [1, 4] is reported as 0.0%. For the same compound, the “Mean change in body weight” value [1, 5] was 1.3%, the “Mean change in body weight” value [1, 6] was 0.6% and the “Mean change in body weight” value [1, 7] was 0.9%. For the same compound, the “Mean change in body weight” value [1, 8] was 0.7%, the “Mean change in body weight” value [1, 9] was 1.8% and the “Mean change in body weight” value [1, 10] was 1.4%. For the same compound, the “Mean change in body weight” value [1, 11] was 1.2%, the “Mean change in body weight” value [1, 12] was 1.0% and the “Mean change in body weight” value [1, 13] was 2.9%. The “Mean change in body weight” value [1, 14] was 0.4%, the “Mean change in body weight” value [1, 15] was 0.0% and the “Mean change in body weight” value [1, 16] was 2.4%. For the same compound, the “Mean change in body weight” value [1, 17] was 3.6%, the “Mean change in body weight” value [1, 18] was 0.6% and the “Mean change in body weight” value [1, 19] was 3.6%. The “Mean change in body weight” value [1, 20] was 4.8%, the “Mean change in body weight” value [1, 21] was 3.1% and the “Mean change in body weight” value [1, 22] was 6.7%. The “Mean change in body weight” value [1, 23] was 4.4%, the “Mean change in body weight” value [1, 24] was 4.6% and the “Mean change in body weight” value [1, 25] was 5.1%. The “Mean change in body weight” value [1, 26] was 3.0%, the “Mean estimated tumor volume” value (HCC827 cells; [2]) was 269.0 mm^3 and the “Mean estimated tumor volume” value (HCC827 cells; [3]) was 273.7 mm^3. The “Mean estimated tumor volume” value (HCC827 cells; [4]) was 279.7 mm^3, the “Mean estimated tumor volume” value (HCC827 cells; [5]) was 376.3 mm^3 and the “Mean estimated tumor volume” value (HCC827 cells; [6]) was 366.6 mm^3. The “Mean estimated tumor volume” value (HCC827 cells; [7]) was 386.5 mm^3, the “Mean estimated tumor volume” value (HCC827 cells; [8]) was 446.8 mm^3 and the “Mean estimated tumor volume” value (HCC827 cells; [9]) was 458.8 mm^3. The “Mean estimated tumor volume” value (HCC827 cells; [10]) was 468.3 mm^3, the “Mean estimated tumor volume” value (HCC827 cells; [11]) was 580.4 mm^3 and the “Mean estimated tumor volume” value (HCC827 cells; [12]) was 550.8 mm^3. For the same compound, the “Mean estimated tumor volume” value (HCC827 cells; [13]) was 579.7 mm^3, the “Mean estimated tumor volume” value (HCC827 cells; [14]) was 647.2 mm^3 and the “Mean estimated tumor volume” value (HCC827 cells; [15]) was 631.7 mm^3. The “Mean estimated tumor volume” value (HCC827 cells; [16]) was 676.8 mm^3, the “Mean estimated tumor volume” value (HCC827 cells; [17]) was 759.0 mm^3 and the “Mean estimated tumor volume” value (HCC827 cells; [18]) was 718.2 mm^3. For the same compound, the “Mean estimated tumor volume” value (HCC827 cells; [19]) was 816.3 mm^3, the “Mean estimated tumor volume” value (HCC827 cells; [20]) was 835.6 mm^3 and the “Mean estimated tumor volume” value (HCC827 cells; [21]) was 792.0 mm^3. The “Mean estimated tumor volume” value (HCC827 cells; [22]) was 856.2 mm^3, the “Mean estimated tumor volume” value (HCC827 cells; [23]) was 1013.6 mm^3 and the “Mean estimated tumor volume” value (HCC827 cells; [24]) was 939.4 mm^3. For the same compound, the “Mean estimated tumor volume” value (HCC827 cells; [25]) was 1037.5 mm^3 and the “Mean estimated tumor volume” value (HCC827 cells; [26]) was 1097.1 mm^3.

With C=CC(=O)Nc1cc(Nc2nccc(-c3cn(C)c4ccccc34)n2)c(OC)cc1N(C)CCN(C)C [osimertinib, N-(2-{[2-(dimethylamino)ethyl](methyl)amino}-4-methoxy-5-{[4-(1-methyl-1H-indol-3-yl)pyrimidin-2-yl]amino}phenyl)propen-2-amide] the “Mean change in body weight” value ([1]; Day 0, osimertinib 3 mg/kg, qd) was 0.0%, the “Mean change in body weight” value ([1]; Day 4, osimertinib 3 mg/kg, qd) was 0.1% and the “Mean change in body weight” value ([1]; Day 7, osimertinib 3 mg/kg, qd) was 1.0%. For the same compound, the “Mean change in body weight” value [1, 27] was 0.3%, the “Mean change in body weight” value [1, 28] was 1.1% and the “Mean change in body weight” value [1, 29] was 0.9%. The “Mean change in body weight” value [1, 30] was 2.7%, the “Mean change in body weight” value [1, 31] was 2.6% and the “Mean change in body weight” value [1, 32] was 1.1%. The “Mean change in body weight” value [1, 33] was 2.0%, the “Mean change in body weight” value [1, 34] was 3.1% and the “Mean change in body weight” value [1, 35] was 4.0%. For the same compound, the “Mean change in body weight” value ([1]; Day 42, osimertinib 3 mg/kg, qd) was 3.2%, the “Mean change in body weight” value [1, 36] was 4.5% and the “Mean change in body weight” value [1, 37] was 5.0%. For the same compound, the “Mean change in body weight” value [1, 38] was 5.1%, the “Mean change in body weight” value [1, 39] was 5.3% and the “Mean change in body weight” value [1, 40] was 5.4%. The “Mean change in body weight” value [1, 41] was 5.7%, the “Mean change in body weight” value [1, 42] was 6.4% and the “Mean change in body weight” value ([1]; Day 70, osimertinib 3 mg/kg, qd) was 5.7%. The “Mean change in body weight” value [1, 43] was 7.4%, the “Mean change in body weight” value [1, 44] was 6.6% and the “Mean change in body weight” value [1, 45] was 8.9%. The “Mean change in body weight” value [1, 46] was 8.0%, the “Mean change in body weight” value [1, 47] was 8.8% and the “Mean change in body weight” value [1, 48] was 9.6%. The “Mean change in body weight” value [1, 49] was 11.7%, the “Mean change in body weight” value ([1]; Day 98, osimertinib 3 mg/kg, qd) was 11.2% and the “Mean change in body weight” value [1, 50] was 11.9%. For the same compound, the “Mean estimated tumor volume” value (HCC827 cells; Day 0, osimertinib 3 mg/kg, qd) was 259.3 mm^3, the “Mean estimated tumor volume” value (HCC827 cells; Day 4, osimertinib 3 mg/kg, qd) was 93.1 mm^3 and the “Mean estimated tumor volume” value (HCC827 cells; Day 7, osimertinib 3 mg/kg, qd) was 56.7 mm^3. The “Mean estimated tumor volume” value (HCC827 cells; [27]) was 38.7 mm^3, the “Mean estimated tumor volume” value (HCC827 cells; [28]) was 33.1 mm^3 and the “Mean estimated tumor volume” value (HCC827 cells; [29]) was 30.9 mm^3. The “Mean estimated tumor volume” value (HCC827 cells; [30]) was 29.6 mm^3, the “Mean estimated tumor volume” value (HCC827 cells; [31]) was 32.0 mm^3 and the “Mean estimated tumor volume” value (HCC827 cells; [32]) was 32.0 mm^3. For the same compound, the “Mean estimated tumor volume” value (HCC827 cells; [33]) was 35.5 mm^3, the “Mean estimated tumor volume” value (HCC827 cells; [34]) was 42.1 mm^3 and the “Mean estimated tumor volume” value (HCC827 cells; [35]) was 44.9 mm^3. For the same compound, the “Mean estimated tumor volume” value (HCC827 cells; [36]) was 53.3 mm^3, the “Mean estimated tumor volume” value (HCC827 cells; [37]) was 63.7 mm^3 and the “Mean estimated tumor volume” value (HCC827 cells; [38]) was 80.8 mm^3. For the same compound, the “Mean estimated tumor volume” value (HCC827 cells; [39]) was 92.4 mm^3, the “Mean estimated tumor volume” value (HCC827 cells; [40]) was 103.3 mm^3 and the “Mean estimated tumor volume” value (HCC827 cells; [41]) was 134.1 mm^3. For the same compound, the “Mean estimated tumor volume” value (HCC827 cells; [42]) was 146.2 mm^3, the “Mean estimated tumor volume” value (HCC827 cells; [43]) was 182.1 mm^3 and the “Mean estimated tumor volume” value (HCC827 cells; [44]) was 220.1 mm^3. The “Mean estimated tumor volume” value (HCC827 cells; [45]) was 285.7 mm^3, the “Mean estimated tumor volume” value (HCC827 cells; [46]) was 341.2 mm^3 and the “Mean estimated tumor volume” value (HCC827 cells; [47]) was 404.1 mm^3. For the same compound, the “Mean estimated tumor volume” value (HCC827 cells; [48]) was 509.3 mm^3, the “Mean estimated tumor volume” value (HCC827 cells; [49]) was 602.4 mm^3 and the “Mean estimated tumor volume” value (HCC827 cells; [50]) was 727.5 mm^3. The “Day at which the tumor became bigger than its size at the start of administration (acquired resistance)” value (HCC827 cells; mouse, in vivo, 3 mg/kg) was 81 days and the “Effect on tumor immediately after administration” value (HCC827 cells; osimertinib administered alone, 3 mg/kg qd) was “tumor regression effect”.
